# Experimental data from patent publication US9738932B2, “Biomarkers for cardiovascular side-effects induced by cox-2 inhibitory compounds” (FIRALIS SAS, priority 2005, dated 2017).
# Tested on: mRNA expression in cardiovascular tissues
# Test: Affymetrix GeneChip mRNA expression profiling of monkey tissues (iliac vein, pulmonary vein, aorta, carotid artery, heart) after two-week oral-gavage treatment
# Conditions: iliac vein; group avg, Vioxx without A60055
smiles,measurement,value
"Cc1ccc(Nc2c(F)cccc2Cl)c(CC(=O)O)c1 [COX189, Lumiracoxib]",HFE (211329_x_at) avg fold change vs control,0.9 fold
same,HFE (211332_x_at) avg fold change vs control,1.1 fold
same,HFE (211863_x_at) avg fold change vs control,1.3 fold
same,HFE (211866_x_at) avg fold change vs control,1.2 fold
same,HHL (203020_at) avg fold change vs control,1.0 fold
same,HLA-A (211528_x_at) avg fold change vs control,1.3 fold
same,HLA-A (211529_x_at) avg fold change vs control,1.3 fold
same,HLA-A (211530_x_at) avg fold change vs control,1.6 fold
same,HLA-A (215313_x_at) avg fold change vs control,1.3 fold
same,HLA-B (208729_x_at) avg fold change vs control,1.3 fold
same,HLA-B (209140_x_at) avg fold change vs control,1.2 fold
same,HLA-B (211911_x_at) avg fold change vs control,1.3 fold
same,HLA-C (208812_x_at) avg fold change vs control,1.1 fold
same,HLA-C (214459_x_at) avg fold change vs control,1.2 fold
same,HLA-C (216526_x_at) avg fold change vs control,1.4 fold
same,HLA-DMA (217478_s_at) avg fold change vs control,1.2 fold
same,HLA-DMB (203932_at) avg fold change vs control,1.2 fold
same,HLA-DQA1 (212671_s_at) avg fold change vs control,1.6 fold
same,HLA-DQB1 (209823_x_at) avg fold change vs control,1.0 fold
same,HLA-DQB1 (211654_x_at) avg fold change vs control,1.8 fold
same,HLA-DQB1 (211656_x_at) avg fold change vs control,1.3 fold
same,HLA-DQB2 (212998_x_at) avg fold change vs control,1.4 fold
same,HLA-DRA (208894_at) avg fold change vs control,1.2 fold
same,HLA-DRA (210982_s_at) avg fold change vs control,1.1 fold
same,HLA-DRB1 (215193_x_at) avg fold change vs control,1.5 fold
same,HLA-DRB3 (209312_x_at) avg fold change vs control,1.3 fold
same,HLA-DRB6 (217362_x_at) avg fold change vs control,1.3 fold
same,HLA-E (200905_x_at) avg fold change vs control,1.2 fold
same,HLA-E (217456_x_at) avg fold change vs control,1.4 fold
same,HLA-F (204806_x_at) avg fold change vs control,1.2 fold
same,HLA-F (221875_x_at) avg fold change vs control,1.2 fold
same,ICAM1 (202638_s_at) avg fold change vs control,0.9 fold
same,ICAM1 (215485_s_at) avg fold change vs control,1.0 fold
same,ICSBP1 (204057_at) avg fold change vs control,1.2 fold
same,IFI27 (202411_at) avg fold change vs control,4.2 fold
same,IFI30 (201422_at) avg fold change vs control,1.1 fold
same,IFI44 (214453_s_at) avg fold change vs control,2.0 fold
same,IFIT1 (203153_at) avg fold change vs control,1.1 fold
same,IFIT2 (217502_at) avg fold change vs control,1.4 fold
same,IFIT4 (204747_at) avg fold change vs control,0.9 fold
same,IFITM2 (201315_x_at) avg fold change vs control,1.2 fold
same,IFITM3 (212203_x_at) avg fold change vs control,1.0 fold
same,IGF1 (209541_at) avg fold change vs control,0.9 fold
same,IGFBP4 (201508_at) avg fold change vs control,0.6 fold
same,IL1A (208200_at) avg fold change vs control,1.6 fold
same,IL2RG (204116_at) avg fold change vs control,1.3 fold
same,IL27RA (205926_at) avg fold change vs control,1.1 fold
same,INDO (210029_at) avg fold change vs control,1.2 fold
same,INPP5D (203332_s_at) avg fold change vs control,1.2 fold
same,IRF1 (202531_at) avg fold change vs control,1.3 fold
same,IRF7 (208436_s_at) avg fold change vs control,1.6 fold
same,ISGF3G (203882_at) avg fold change vs control,1.5 fold
same,ITGB2 (202803_s_at) avg fold change vs control,1.0 fold
same,JAK1 (214377_s_at) avg fold change vs control,1.1 fold
same,KLKB1 (206541_at) avg fold change vs control,1.0 fold
same,LAIR1 (208071_s_at) avg fold change vs control,1.1 fold
same,LCK (204890_s_at) avg fold change vs control,1.4 fold
same,LCP2 (205270_s_at) avg fold change vs control,1.2 fold
same,LILRB1 (207857_at) avg fold change vs control,0.7 fold
same,LILRB1 (211100_x_at) avg fold change vs control,1.0 fold
same,LILRB3 (208594_x_at) avg fold change vs control,1.0 fold
same,LILRB3 (210225_x_at) avg fold change vs control,1.1 fold
same,LRMP (204674_at) avg fold change vs control,1.6 fold
same,LY86 (205859_at) avg fold change vs control,0.9 fold
same,LY96 (206584_at) avg fold change vs control,1.0 fold
same,LYN (210754_s_at) avg fold change vs control,0.8 fold
same,MAF (209348_s_at) avg fold change vs control,0.9 fold
same,PCOLCE (202465_at) avg fold change vs control,0.8 fold
same,PLA2G4C (209785_s_at) avg fold change vs control,1.4 fold
same,PLCL2 (216217_at) avg fold change vs control,0.9 fold
same,PLSCR1 (202446_s_at) avg fold change vs control,1.0 fold
same,PRC1 (218009_s_at) avg fold change vs control,1.0 fold
same,PRG1 (201858_s_at) avg fold change vs control,0.9 fold
same,PRG1 (201859_at) avg fold change vs control,0.9 fold
same,PTPN22 (206060_s_at) avg fold change vs control,1.2 fold
same,PTPRC (207238_s_at) avg fold change vs control,1.1 fold
same,SOCS3 (206360_s_at) avg fold change vs control,1.0 fold
same,STAT1 (209969_s_at) avg fold change vs control,1.4 fold
same,STAT1 (AFFX-HUMISGF3A/M97935_5_at) avg fold change vs control,1.6 fold
same,STAT1 (AFFX-HUMISGF3A/M97935_MA_at) avg fold change vs control,1.2 fold
same,STAT1 (AFFX-HUMISGF3A/M97935_MB_at) avg fold change vs control,1.9 fold
same,TAPBP (208829_at) avg fold change vs control,1.1 fold
same,TCTEL1 (201999_s_at) avg fold change vs control,0.9 fold
same,TLR1 (210176_at) avg fold change vs control,0.8 fold
same,TLR2 (204924_at) avg fold change vs control,0.8 fold
same,TNFAIP3 (202643_s_at) avg fold change vs control,1.2 fold
same,TNFAIP3 (202644_s_at) avg fold change vs control,1.3 fold
same,TNFSF6 (210865_at) avg fold change vs control,1.3 fold
same,TNFSF10 (202687_s_at) avg fold change vs control,1.2 fold
same,TNFSF10 (202688_at) avg fold change vs control,1.2 fold
same,TRGC2 (211144_x_at) avg fold change vs control,1.3 fold
same,TRGC2 (216920_s_at) avg fold change vs control,1.1 fold
same,VCAM1 (203868_s_at) avg fold change vs control,0.9 fold
same,XCL1 (206366_x_at) avg fold change vs control,1.7 fold
same,XCL1 (214567_s_at) avg fold change vs control,1.3 fold
same,XLKD1 (219059_s_at) avg fold change vs control,1.0 fold
same,cig5 (213797_at) avg fold change vs control,1.8 fold
